Experimental data taken from patent US10576062B2, “Carbamoyloxymethyl triazole cyclohexyl acids as LPA antagonists” (Bristol-Myers Squibb Company, priority 2016, dated 2020).

Target: T1, human LPA1 (Homo sapiens, UniProt Q92633)
T1 construct: expressed in transfected cells; host or cells: Chinese hamster ovary (CHO) cells
Assay: LPA1 functional antagonist assay (LPA-induced calcium flux)
Type: cell-based
Details: CHO cells overexpressing human LPA1; inhibition of calcium flux induced by 10 nM LPA; read-out: hLPA1 IC50
Procedure: The effectiveness of compounds of the present invention as LPA1 inhibitors can be determined in an LPA1 functional antagonist assay as follows: Chinese hamster ovary cells overexpressing human LPA1 were plated overnight (15,000 cells/well) in poly-D-lysine coated 384-well microplates (Greiner bio-one, Cat #781946) in DMEM/F12 medium (Gibco, Cat #11039). Following overnight culture, cells were loaded with calcium indicator dye (AAT Bioquest Inc, Cat #34601) for 30 minutes at 37° C. The cells were then equilibrated to room temperature for 30 minutes before the assay. Test compounds solubilized in DMSO were transferred to 384 well non-binding surface plates (Corning, Cat #3575) using the Labcyte Echo acoustic dispense and diluted with assay buffer [1×HBSS with calcium/magnesium (Gibco Cat #14025-092), 20 mM HEPES (Gibco Cat #15630-080) and 0.1% fatty acid free BSA (Sigma Cat #A9205)] to a final concentration of 0.5% DMSO. Diluted compounds were added to the cells by FDSS6000 (Hamamatsu) at final concentrations ranging from 0.08 nM to 5 μM. and were then incubated for 20 min at room temperature at which time LPA (Avanti Polar Lipids Cat #857130C) was added at final concentrations of 10 nM to stimulate the cells. […] IC50 values were determined by fitting data to a 4-parameter logistic equation (GraphPad Prism, San Diego Calif.).

T1 sequence (Q92633 whole entry): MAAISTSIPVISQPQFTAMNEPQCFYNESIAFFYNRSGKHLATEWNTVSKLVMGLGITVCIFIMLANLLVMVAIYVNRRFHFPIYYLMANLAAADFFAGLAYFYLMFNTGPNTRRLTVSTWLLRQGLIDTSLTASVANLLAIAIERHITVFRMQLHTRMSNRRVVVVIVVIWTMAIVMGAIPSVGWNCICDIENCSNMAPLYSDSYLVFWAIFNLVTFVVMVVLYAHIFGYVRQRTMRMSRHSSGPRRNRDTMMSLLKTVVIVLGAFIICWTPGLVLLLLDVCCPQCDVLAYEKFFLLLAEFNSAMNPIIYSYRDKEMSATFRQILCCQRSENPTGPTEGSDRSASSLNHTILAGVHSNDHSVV

Row | IC50 [nM] | Structure (SMILES)
1 | 132 | CCC(F)CN(C)C(=O)OCc1c(-c2cnc(O[C@H]3CCC[C@H](C(=O)O)C3)c(C)n2)nnn1C (mixture of isomers) [Example 254, (1S,3S)-3-((5-(5-((((2-fluorobutyl)(methyl)carbamoyl)oxy)methyl)-1-methyl-1H-1,2,3-triazol-4-yl)-3-methylpyrazin-2-yl)oxy)cyclohexane-1-carboxylic acid]
2 | 57 | CCC(F)CN(C)C(=O)OCc1c(-c2ccc(O[C@H]3CCC[C@H](C(=O)O)C3)c(C)n2)nnn1C (mixture of isomers) [Example 255, (1S,3S)-3-((6-(5-((((2-fluorobutyl)(methyl)carbamoyl)oxy)methyl)-1-methyl-1H-1,2,3-triazol-4-yl)-2-methylpyridin-3-yl)oxy)cyclohexane-1-carboxylic acid]
3 | 12 | Cc1nc(-c2nnn(C)c2COC(=O)N(C)CC2CCC2)ccc1O[C@H]1CCC[C@](F)(C(=O)O)C1 (racemic) [Example 11, (rac)-3-((6-(5-((((cyclobutylmethyl)(methyl)carbamoyl)oxy)methyl)-1-methyl-1H-1,2,3-triazol-4-yl)-2-methylpyridin-3-yl)oxy)-1-fluorocyclohexane-1-carboxylic Acid]
4 | 95 | Cc1nc(-c2nnn(C)c2COC(=O)N(C)CC2CCC2)ccc1O[C@H]1CCC[C@](F)(C(=O)O)C1 (single isomer, unassigned) [Example 13, 3-((6-(5-((((cyclobutylmethyl)(methyl)carbamoyl)oxy)methyl)-1-methyl-1H-1,2,3-triazol-4-yl)-2-methylpyridin-3-yl)oxy)-1-fluorocyclohexane-1-carboxylic Acid]
5 | 19 | Cc1nc(-c2nnn(C)c2COC(=O)N(C)C[C@H]2C[C@@H]2C)ccc1O[C@H]1CCCC(C(=O)O)C1 (stereo in doubt) [Example 258, (1R,3 S)-3-((2-methyl-6-(1-methyl-5-(((methyl(((1S,2S)-2-methylcyclopropyl)methyl)carbamoyl)oxy)methyl)-1H-1,2,3-triazol-4-yl)pyridin-3-yl)oxy)cyclohexane-1-carboxylic Acid]

Same assay, conditions: human LPA1; read-out: hLPA1 IC50

Row | Structure (SMILES) | IC50 [nM]
6 | CCCC1CCN(C(=O)OCc2c(-c3ccc(O[C@H]4CCC[C@H](C(=O)O)C4)c(C)n3)nnn2C)C1 (mixture of isomers) [Example 166, (1S,3S)-3-((2-methyl-6-(1-methyl-5-(((3-propylpyrrolidine-1-carbonyl)oxy)methyl)-1H-1,2,3-triazol-4-yl)pyridin-3-yl)oxy)cyclohexane-1-carboxylic acid] | 109
7 | Cc1nc(-c2nnn(C)c2COC(=O)N2CCC(c3ccccc3)C2)ccc1O[C@H]1CCC[C@H](C(=O)O)C1 (mixture of isomers) [Example 169, (1S,3S)-3-((2-methyl-6-(1-methyl-5-(((3-phenylpyrrolidine-1-carbonyl)oxy)methyl)-1H-1,2,3-triazol-4-yl)pyridin-3-yl)oxy)cyclohexane-1-carboxylic acid] | 336
8 | Cc1nc(-c2nnn(C)c2COC(=O)N(C)C2CC(F)C2)ccc1O[C@H]1CCC[C@H](C(=O)O)C1 (mixture of isomers) [Example 182, (1S,3S)-3-((6-(5-((((3-fluorocyclobutyl)(methyl)carbamoyl)oxy)methyl)-1-methyl-1H-1,2,3-triazol-4-yl)-2-methylpyridin-3-yl)oxy)cyclohexane-1-carboxylic acid] | 61
9 | Cc1nc(-c2nnn(C)c2COC(=O)N(C)C2CC3(CCC3)C2)ccc1O[C@H]1CCCC(C(=O)O)C1 (stereo in doubt) [Example 158, (1R,3S)-3-((2-methyl-6-(1-methyl-5-(((methyl(spiro[3.3]heptan-2-yl)carbamoyl)oxy)methyl)-1H-1,2,3-triazol-4-yl)pyridin-3-yl)oxy)cyclohexane-1-carboxylic acid] | 32

Continued, values first:

Row | IC50 [nM] | Structure (SMILES)
10 | 37 | Cc1nc(-c2nnn(C)c2COC(=O)N(C)CC2CC2(C)C)ccc1O[C@H]1CCC[C@H](C(=O)O)C1 (mixture of isomers) [Example 184, (1S,3S)-3-((6-(5-(((((2,2-dimethylcyclopropyl)methyl)(methyl)carbamoyl)oxy)methyl)-1-methyl-1H-1,2,3-triazol-4-yl)-2-methylpyridin-3-yl)oxy)cyclohexane-1-carboxylic acid]
11 | 86 | CN(CC1CC1(C)C)C(=O)OCc1c(-c2ccc(O[C@H]3CCC[C@H](C(=O)O)C3)cn2)nnn1C (mixture of isomers) [Example 185, (1S,3S)-3-((6-(5-(((((2,2-dimethylcyclopropyl)methyl)(methyl)carbamoyl)oxy)methyl)-1-methyl-1H-1,2,3-triazol-4-yl)pyridin-3-yl)oxy)cyclohexane-1-carboxylic acid]
12 | 67 | CN(CC1CC1(F)F)C(=O)OCc1c(-c2ccc(O[C@H]3CCC[C@H](C(=O)O)C3)cn2)nnn1C (mixture of isomers) [Example 186, (1S,3S)-3-((6-(5-(((((2,2-difluorocyclopropyl)methyl)(methyl)carbamoyl)oxy)methyl)-1-methyl-1H-1,2,3-triazol-4-yl)pyridin-3-yl)oxy)cyclohexane-1-carboxylic acid]

Same assay, conditions: read-out: hLPA1 IC50

Row | Structure (SMILES) | IC50 [nM]
13 | CN(CCC1CC1)C(=O)OCc1c(-c2ccc(O[C@H]3CCC[C@H](C(=O)O)C3)cc2)nnn1C (racemic) [Example 55, (rac)-trans-3-(4-(5-((((2-cyclopropylethyl)(methyl)carbamoyl)oxy)methyl)-1-methyl-1H-1,2,3-triazol-4-yl)phenoxy)cyclohexane-1-carboxylic acid] | 41
14 | CCCCCN(C)C(=O)OCc1c(-c2ccc(O[C@H]3CCC[C@H](C(=O)O)C3)cc2)nnn1C (racemic) [Example 58, (rac)-trans-3-(4-(1-methyl-5-(((methyl(pentyl)carbamoyl)oxy)methyl)-1H-1,2,3-triazol-4-yl)phenoxy)cyclohexane-1-carboxylic acid] | 250
15 | CCCN(C)C(=O)OCc1c(-c2ccc(O[C@H]3CCC[C@H](C(=O)O)C3)cc2)nnn1C (racemic) [Example 59, (rac)-trans-3-(4-(1-methyl-5-(((methyl(propyl)carbamoyl)oxy)methyl)-1H-1,2,3-triazol-4-yl)phenoxy)cyclohexane-1-carboxylic acid] | 1880
16 | CN(Cc1ccccc1)C(=O)OCc1c(-c2ccc(O[C@H]3CCC[C@H](C(=O)O)C3)cc2)nnn1C (racemic) [Example 60, (rac)-trans-3-(4-(5-(((benzyl(methyl)carbamoyl)oxy)methyl)-1-methyl-1H-1,2,3-triazol-4-yl)phenoxy)cyclohexane-1-carboxylic acid] | 130
17 | CCCCN(C)C(=O)OCc1c(-c2ccc(O[C@H]3CCC[C@H](C(=O)O)C3)cc2)nnn1C (racemic) [Example 64, (rac)-trans-3-(4-(5-(((butyl(methyl)carbamoyl)oxy)methyl)-1-methyl-1H-1,2,3-triazol-4-yl)phenoxy)cyclohexane-1-carboxylic acid] | 32
18 | Cc1nc(-c2nnn(C)c2COC(=O)N(C)C2CCCC2)ccc1O[C@H]1CCC[C@](F)(C(=O)O)C1 (racemic) [Example 88] | 32
19 | CC(C1CCC1)N(C)C(=O)OCc1c(-c2ccc(O[C@H]3CCC[C@H](C(=O)O)C3)cc2)nnn1C (single isomer, unassigned) [Example 48] | 8
20 | CC(C1CCC1)N(C)C(=O)OCc1c(-c2ccc(O[C@H]3CCC[C@H](C(=O)O)C3)cc2)nnn1C (single isomer, unassigned) [Example 49] | 14
21 | CC(C1CCC1)N(C)C(=O)OCc1c(-c2ccc(O[C@H]3CCC[C@H](C(=O)O)C3)cc2)nnn1C (single isomer, unassigned) [Example 67, trans-3-(4-(5-((((1-cyclobutylethyl)(methyl)carbamoyl)oxy)methyl)-1-methyl-1H-1,2,3-triazol-4-yl)phenoxy)cyclohexane-1-carboxylic acid] | 109
22 | Cc1nc(-c2nnn(C)c2COC(=O)N(C)C2(C)CC(C)C2)ccc1O[C@H]1CCC[C@H](C(=O)O)C1 (single isomer, unassigned) [Example 106] | 67
23 | Cc1nc(-c2nnn(C)c2COC(=O)N(C)C2(C)CC(C)C2)ccc1O[C@H]1CCC[C@H](C(=O)O)C1 (single isomer, unassigned) [Example 107] | 70

More lines, now with the values ahead:

Row | IC50 [nM] | Structure (SMILES)
24 | 21 | CN(C(=O)OCc1c(-c2ccc(O[C@H]3CCC[C@H](C(=O)O)C3)cn2)nnn1C)C1CCCC1 (racemic) [Example 18, (rac)-3-((6-(5-(((cyclopentyl(methyl)carbamoyl)oxy)methyl)-1-methyl-1H-1,2,3-triazol-4-yl)pyridin-3-yl)oxy)cyclohexane-1-carboxylic acid]
25 | 273 | CN(CC1CC1)C(=O)OCc1c(-c2ccc(O[C@H]3CCC[C@H](C(=O)O)C3)cc2)nnn1C (racemic) [Example 61, (rac)-trans-3-(4-(5-((((cyclopropylmethyl)(methyl)carbamoyl)oxy)methyl)-1-methyl-1H-1,2,3-triazol-4-yl)phenoxy)cyclohexane-1-carboxylic acid]
26 | 32 | CN(C(=O)OCc1c(-c2ccc(O[C@H]3CCC[C@](F)(C(=O)O)C3)cn2)nnn1C)C1CCCC1 (racemic) [Example 89]
27 | 14 | CN(CC1CCC1)C(=O)OCc1c(-c2ccc(O[C@H]3CCC[C@](F)(C(=O)O)C3)cn2)nnn1C (racemic) [Example 90]
